Source: ChEMBL document CHEMBL1687741, “Population pharmacokinetics of lumefantrine in pregnant women treated with artemether-lumefantrine for uncomplicated Plasmodium falciparum malaria” (Antimicrob Agents Chemother, 2009)

Assays:
Format in all cases: ADME, organism-based
[1] = Cmax in capillary plasma of pregnant human patient with uncomplicated multidrug-resistant Plasmodium falciparum malaria at 120 mg, po administered as 4 tablets BID for 5 days coadministered with 20 mg artemether measured on 7 days by two-compartment population pharmacokinetic model; design: dose 120 mg, route oral; settings: female
[2] = Cmax in pregnant human patient with uncomplicated multidrug-resistant Plasmodium falciparum malaria at 120 mg, po administered as 4 tablets BID for 5 days coadministered with 20 mg artemether measured after 7 days by two-compartment population pharmacokinetic model; design: dose 120 mg, route oral; settings: female, in vivo
[3] = Cmax in pregnant human patient with uncomplicated multidrug-resistant Plasmodium falciparum malaria at 120 mg, po administered as 4 tablets BID for 4 days coadministered with 20 mg artemether measured after 7 days by two-compartment population pharmacokinetic model; design: dose 120 mg, route oral; settings: female, in vivo
[4] = Cmax in pregnant human patient with uncomplicated multidrug-resistant Plasmodium falciparum malaria at 120 mg, po administered as 4 tablets BID for 5 days coadministered with 20 mg artemether by two-compartment population pharmacokinetic model; design: dose 120 mg, route oral; settings: female, in vivo
[5] = Cmax in pregnant human patient with uncomplicated multidrug-resistant Plasmodium falciparum malaria at 120 mg, po administered as 4 tablets BID for 4 days coadministered with 20 mg artemether by two-compartment population pharmacokinetic model; design: dose 120 mg, route oral; settings: female, in vivo
[6] = Cmax in pregnant human patient with uncomplicated multidrug-resistant Plasmodium falciparum malaria at 120 mg, po administered as 4 tablets BID for 3 days coadministered with 20 mg artemether by two-compartment population pharmacokinetic model; design: dose 120 mg, route oral; settings: female, in vivo
[7] = Drug concentration in pregnant human patient with uncomplicated multidrug-resistant Plasmodium falciparum malaria at 120 mg, po administered as 4 tablets BID for 3 days coadministered with 20 mg artemether; settings: female, in vivo, read-out: Drug uptake
[8] = Drug concentration in pregnant human with uncomplicated multidrug-resistant Plasmodium falciparum malaria infection at 120 mg, po administered as 4 tablets BID for 3 days coadministered with 20 mg artemether; settings: female, in vivo, read-out: Drug uptake
[9] = Drug concentration in pregnant human patient with reappeared uncomplicated multidrug-resistant Plasmodium falciparum malaria infection at 120 mg, po administered as 4 tablets BID for 3 days coadministered with 20 mg artemether; settings: female, in vivo, read-out: Drug uptake
[10] = Drug concentration in pregnant human patient with uncomplicated multidrug-resistant Plasmodium falciparum malaria at 120 mg, po administered as 4 tablets BID for 3 days coadministered with 20 mg artemether measured after 7 days by two-compartment population pharmacokinetic model; settings: female, in vivo, read-out: Drug uptake
Homo sapiens [11] = assay: AUC (0 to infinity) in pregnant human patient with uncomplicated multidrug-resistant Plasmodium falciparum malaria at 120 mg, po administered as 4 tablets BID for 3 days coadministered with 20 mg artemether by two-compartment population pharmacokinetic model; design: dose 120 mg, time infinity, route oral; settings: in vivo, 72 h
[12] = Terminal elimination half-life in pregnant human patient with uncomplicated multidrug-resistant Plasmodium falciparum malaria at 120 mg, po administered as 4 tablets BID for 3 days coadministered with 20 mg artemether by two-compartment population pharmacokinetic model; settings: female, in vivo, read-out: beta t1/2 (converted)
Homo sapiens [13] = assay: Volume of distribution at steady state in pregnant human patient with uncomplicated multidrug-resistant Plasmodium falciparum malaria at 120 mg, po administered as 4 tablets BID for 3 days coadministered with 20 mg artemether by two-compartment population pharmacokinetic model; settings: in vivo, 72 h
Homo sapiens [14] = assay: Absorption rate constant in pregnant human patient with uncomplicated multidrug-resistant Plasmodium falciparum malaria at 120 mg, po administered as 4 tablets BID for 3 days coadministered with 20 mg artemether by two-compartment population pharmacokinetic model; settings: in vivo, 72 h
Homo sapiens [15] = assay: Apparent peripheral volume of distribution in pregnant human patient with uncomplicated multidrug-resistant Plasmodium falciparum malaria at 120 mg, po administered as 4 tablets BID for 3 days coadministered with 20 mg artemether by two-compartment population pharmacokinetic model; settings: in vivo, 72 h
Homo sapiens [16] = assay: Intercompartmental clearance in pregnant human patient with uncomplicated multidrug-resistant Plasmodium falciparum malaria at 120 mg, po administered as 4 tablets BID for 3 days coadministered with 20 mg artemether by two-compartment population pharmacokinetic model; settings: in vivo, 72 h
Homo sapiens [17] = assay: Apparent volume of distribution in pregnant human patient with uncomplicated multidrug-resistant Plasmodium falciparum malaria at 120 mg, po administered as 4 tablets BID for 3 days coadministered with 20 mg artemether by two-compartment population pharmacokinetic model; settings: in vivo, 72 h
Homo sapiens [18] = assay: Clearance in pregnant human patient with uncomplicated multidrug-resistant Plasmodium falciparum malaria at 120 mg, po administered as 4 tablets BID for 3 days coadministered with 20 mg artemether by two-compartment population pharmacokinetic model; settings: in vivo, 72 h
[19] = Cmax in venous plasma of pregnant human patient with uncomplicated multidrug-resistant Plasmodium falciparum malaria at 120 mg, po administered as 4 tablets BID for 5 days coadministered with 20 mg artemether measured on 7 days by two-compartment population pharmacokinetic model; design: dose 120 mg, route oral; settings: female
Homo sapiens [20] = assay: Tlag in pregnant human patient with uncomplicated multidrug-resistant Plasmodium falciparum malaria at 120 mg, po administered as 4 tablets BID for 3 days coadministered with 20 mg artemether measured after 7 days by two-compartment population pharmacokinetic model; settings: in vivo

CCCCN(CCCC)CC(O)c1cc(Cl)cc2c1-c1ccc(Cl)cc1/C2=C/c1ccc(Cl)cc1 (stereo not given) [LUMEFANTRINE]
Cmax [1]: 433 ng/mL
Cmax [2]: 498 ng/mL
Cmax [3]: 314 ng/mL
Cmax [4]: 2430 ng/mL
Cmax [5]: 2480 ng/mL
Cmax [6]: 2080 ng/mL
concentration at 72 h [7]: 135 ng/mL
concentration at 72 h [8]: 136 ng/mL
concentration at 72 h [9]: 126 ng/mL
concentration at 168 h [10]: 391 ng/mL
AUC (Homo sapiens [11]): 472 µg·h/mL
half-life [12]: 79.2 h
Vz (Homo sapiens [13]): 181 L
Ka (Homo sapiens [14]): 0.0588 h⁻¹
Vp/F (Homo sapiens [15]): 160 L
CL (Homo sapiens [16]): 1.82 L/h
Vz (Homo sapiens [17]): 20.2 L
CL (Homo sapiens [18]): 6.11 L/h
Cmax [19]: 49 ng/mL
Time (Homo sapiens [20]): 1.67 h
